For one assay, the target named is T1, Human Polymorphonuclear Leukocyte Elastase (Homo sapiens, UniProt P08246).
T1 construct: Crude extract of human polymorphonuclear leukocytes (PMN) containing elastase activity; from tissue; host or cells: human polymorphonuclear leukocytes (crude extract)
T1 sequence (P08246 30-267): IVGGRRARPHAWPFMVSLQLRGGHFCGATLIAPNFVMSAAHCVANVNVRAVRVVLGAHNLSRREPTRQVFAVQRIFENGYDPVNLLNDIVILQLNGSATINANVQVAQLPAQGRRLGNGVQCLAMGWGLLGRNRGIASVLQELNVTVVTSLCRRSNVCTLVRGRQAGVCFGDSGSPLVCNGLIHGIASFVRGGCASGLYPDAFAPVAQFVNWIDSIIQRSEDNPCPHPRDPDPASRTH
Kind of assay: Enzyme assay for inhibition of human polymorphonuclear leukocyte elastase via hydrolysis of Boc-AAPAN or Boc-AAPVN. In kind it is biochemical. The settings on record: pH 7.5, second order rate constant for inactivation of the enzyme, expressed to the nearest thousand, read-out: Kobs/[I]. The protocol:
Enzyme Assays for the Inhibition of Human Polymorphonuclear Leukocyte Elastase Via Hydrolysis of N-t-Boc-alanyl-alanyl-prolylalanine-p-nitroanilide (Boc-AAPAN) or N-t-Boc-alanyl-prolylvaline-p-nitro-anilide (Boc-AAPVN) Reagent:
0.05M TES (N-tris[hydroxymethyl]methyl-2-mino-ethanesulfonic acid) Buffer, pH 7.5.
0.2 mM Boc-AAPAN or Boc-AAPVN.
To prepare substrate, the solid was first dissolved in 10.0 ml DMSO. Buffer at pH 7.5 was then added to a final volume of 100 ml.
Crude extract of human polymorphonuclear leukocytes (PMN) containing elastase activity.
Inhibitors (azetidinones) to be tested dissolved in DMSO just before use.
To 1.0 ml of 0.2 mM Boc-AAPAN in a cuvette, 0.01-0.1 ml of DMSO with or without inhibitor was added. After mixing, a measurement was taken at 410 mµ to detect any spontaneous hydrolysis due to presence of test compound. 0.05 Milliliters of PMN extract was then added and the ΔOD/min at 410 mµ was measured and recorded. Beckman model 35 spectrophotometer was used.
Results were expressed to the nearest thousand ^kobs/I which is the second order rate constant in per mole per second for inactivation of the enzyme.
The elastase activity in the crude PMN extract may vary from one preparation to another. A control of each new batch is run, and the volume added in the assay procedure is adjusted according to activity.
Take `CCC[C@@H](NC(=O)N1C(=O)C(CC)(CC)[C@@H]1Oc1ccc(C(=O)OCC(=O)N2CCC[C@H]2C(=O)OCc2ccccc2)cc1)c1ccc(C)cc1` [Compound 8]: the kinact/KI amounted to 1.25e+07 M⁻¹ s⁻¹. Still for that read-out and setting: to `CCC[C@@H](NC(=O)N1C(=O)C(CC)(CC)[C@@H]1Oc1ccc(C(=O)O[C@@H](C)C(=O)O)cc1)c1ccc(C)cc1` [Compound 11, 1-carboxy-ethyl [S-(R*,S*)]4-((3,3-diethyl-1-(((1-(4-methylphenyl)butyl)amino)carbonyl)-4-oxo-2-azetidinyl)oxy) benzoate] belongs 1.13e+06 M⁻¹ s⁻¹; to `CCC[C@@H](NC(=O)N1C(=O)C(CC)(CC)[C@@H]1Oc1ccc(C(=O)O[C@@H](C)C(=O)N(CC)CC)cc1)c1ccc(C)cc1` [Compound 12, 2-(diethylamino)-1-methyl-2-oxoethyl[S-(R*,S*)]-4-((3,3-diethyl-1-(((1-(4-methyl-phenyl)butyl)amino)carbonyl)-4-oxo-2-azetidinyl)oxy) benzoate], 2.82e+06 M⁻¹ s⁻¹; to `CCC[C@@H](NC(=O)N1C(=O)C(CC)(CC)[C@@H]1Oc1ccc(C(=O)OC(C)CN(C)C)cc1)c1ccc(C)cc1` (stereo partly drawn) [Compound 13, 1-Dimethylamino-2-propyl [S-(R*,S*)]-4-[[3,3-diethyl-1-[[[1-(4-methyl-phenyl)butyl]amino]carbonyl]-4-oxo-2-azetidinyl]oxy]benzoate], 2.47e+06 M⁻¹ s⁻¹. As for `CCC[C@@H](NC(=O)N1C(=O)C(CC)(CC)[C@@H]1Oc1ccc(C(=O)OCCCN(C)C)cc1)c1ccc(C)cc1` [Compound 14, 3-Dimethylamino-1-propyl [S-(R*,S*)]-4-[[3,3-diethyl-1-[[[1-(4-methyl-phenyl)butyl]amino]carbonyl]-4-oxo-2-azetidinyl]oxy]benzoate], the kinact/KI is 2.86e+06 M⁻¹ s⁻¹. On the same count and under the same terms, to `CCC[C@@H](NC(=O)N1C(=O)C(CC)(CC)[C@@H]1Oc1ccc(C(=O)OCC[N+](C)(C)[O-])cc1)c1ccc(C)cc1` [Compound 15] belongs 2.16e+06 M⁻¹ s⁻¹; to `CCC[C@@H](NC(=O)N1C(=O)C(CC)(CC)[C@@H]1Oc1ccc(C(=O)OCCN(CC)CC)cc1)c1ccc(C)cc1` [Compound 16, 2-Diethylaminoethyl [S-(R*,S*)]-4-[[3,3-diethyl-1-[[[1-(4-methyl-phenyl)butyl]amino]carbonyl]-4-oxo-2-azetidinyl]oxy]benzoate], 2.29e+06 M⁻¹ s⁻¹.

For `CCC[C@@H](NC(=O)N1C(=O)C(CC)(CC)[C@@H]1Oc1ccc(C(=O)OCCN2CCOCC2)cc1)c1ccc(C)cc1` [Compound 17, 2-(1-[4-morpholino]ethyl) [S-(R*,S*)]-4-[[3,3-diethyl-1-[[[1-(4-methyl-phenyl)butyl]amino]carbonyl]-4-oxo-2-azetidinyl]oxy]benzoate], the kinact/KI stood at 4.73e+06 M⁻¹ s⁻¹. `CCC[C@@H](NC(=O)N1C(=O)C(CC)(CC)[C@@H]1Oc1ccc(C(=O)OCCCCN(C)C)cc1)c1ccc(C)cc1` [Compound 18, 4-dimethylaminobutyl [S-(R*,S*)]-4-[[3,3-diethyl-1-[[[1-(4-methyl-phenyl)butyl]amino]carbonyl]-4-oxo-2-azetidinyl]oxy]benzoate]: the kinact/KI stood at 1.93e+06 M⁻¹ s⁻¹.

Turning to `CCC[C@@H](NC(=O)N1C(=O)C(CC)(CC)[C@@H]1Oc1ccc(C(=O)OCC(=O)N2CCC[C@H]2C(=O)NCc2ccccc2)cc1)c1ccc(C)cc1` [Compound 19, [S-(R*,S*)] 1-(((4-((3,3-diethyl-1-(((1-(4-methylphenyl)butyl)amino)carbonyl-4-oxo-2-azetidinyl)oxy)benzoyl)oxy)acetyl-N-benzyl-L-prolinamide], the kinact/KI worked out at 4.96e+06 M⁻¹ s⁻¹. On the same count and under the same terms, the value for `CCC[C@@H](NC(=O)N1C(=O)C(CC)(CC)[C@@H]1Oc1ccc(C(=O)OCC(C)(C)N(C)C)cc1)c1ccc(C)cc1` [Compound 20, 2-dimethylamino-2-methyl-1-propyl [S-(R*,S*)]-4-[[3,3-diethyl-1-[[[1-(4-methyl-phenyl)butyl]amino]carbonyl]-4-oxo-2-azetidinyl]oxy]benzoate] was 1.47e+06 M⁻¹ s⁻¹; that for `CCC[C@@H](NC(=O)N1C(=O)C(CC)(CC)[C@@H]1Oc1ccc(C(=O)OCCN(C(C)C)C(C)C)cc1)c1ccc(C)cc1` [Compound 21, 2-(diisopropylamino)ethyl [S-(R*,S*)]-4-[[3,3-diethyl-1-[[[1-(4-methyl-phenyl)butyl]amino]carbonyl]-4-oxo-2-azetidinyl]oxy]benzoate] was 1.67e+06 M⁻¹ s⁻¹; that for `CCC[C@@H](NC(=O)N1C(=O)C(CC)(CC)[C@@H]1Oc1ccc(C(=O)OCCN2CCN(C(=O)OCc3ccccc3)CC2)cc1)c1ccc(C)cc1` [Compound 22, Benzyl [S-(R*,S*)]-4-[2-[[4-[[3,3-diethyl-1-[[[1-(4-methylphenyl)butyl]amino]carbonyl]-4-oxo-2-azetidinyl]oxy]benzoyl]oxy]-ethyl]-1-Piperazine-carboxylate] was 4.12e+06 M⁻¹ s⁻¹. Take `CCCCN(CCCC)CCOC(=O)c1ccc(O[C@@H]2N(C(=O)N[C@H](CCC)c3ccc(C)cc3)C(=O)C2(CC)CC)cc1` [Compound 23, 2-(dibutylamino)ethyl [S-(R*,S*)]-4-[[3,3-diethyl-1-[[[1-(4-methyl-phenyl)butyl]amino]carbonyl]-4-oxo-2-azetidinyl]oxy]benzoate]: the kinact/KI is 992000 M⁻¹ s⁻¹. For the molecule `CCC[C@@H](NC(=O)N1C(=O)C(CC)(CC)[C@@H]1Oc1ccc(C(=O)OCCCCCCN(C)C)cc1)c1ccc(C)cc1` [Compound 24, [S-(R*,S*)]-6-(dimethylamino)hexyl-4-[[3,3-diethyl-1-[[[1-(4-methyl-phenyl)butyl]amino]carbonyl]-4-oxo-2-azetidinyl]oxy]-benzoate], the kinact/KI stood at 1.99e+06 M⁻¹ s⁻¹.

Consider `CCC[C@@H](NC(=O)N1C(=O)C(CC)(CC)[C@@H]1Oc1ccc(C(=O)OCCN2CCNCC2)cc1)c1ccc(C)cc1` [Compound 25], for which the kinact/KI came to 1.71e+06 M⁻¹ s⁻¹. As to `CCC[C@@H](NC(=O)N1C(=O)C(CC)(CC)[C@@H]1Oc1ccc(C(=O)OCCN2CCN(C)CC2)cc1)c1ccc(C)cc1` [Compound 26, 2-(4-methyl-1-piperazinyl)ethyl[S-(R*,S*)]-4-[[3,3-diethyl-1-[[[1-(4-methyl-phenyl)butyl]amino]carbonyl]-4-oxo-2-azetidinyl]oxy]benzoate], the kinact/KI came to 4.68e+06 M⁻¹ s⁻¹. Regarding `CCC[C@@H](NC(=O)N1C(=O)C(CC)(CC)[C@@H]1Oc1ccc(C(=O)OCCN2CCN(C(C)=O)CC2)cc1)c1ccc(C)cc1` [Compound 27], the kinact/KI was determined as 3.26e+06 M⁻¹ s⁻¹. Regarding `C=CCN(CC=C)CCOC(=O)c1ccc(O[C@@H]2N(C(=O)N[C@H](CCC)c3ccc(C)cc3)C(=O)C2(CC)CC)cc1` [Compound 29, 2-(di-2-propenylamino)ethyl [S-(R*,S*)]-4-[[3,3-diethyl-1-[[[1-(4-methylphenyl)butyl]amino]carbonyl]-4-oxo-2-azetidinyl]oxy]benzoate], the kinact/KI came to 891000 M⁻¹ s⁻¹. On the same count and under the same terms, to `CCC[C@@H](NC(=O)N1C(=O)C(CC)(CC)[C@@H]1Oc1ccc(C(=O)OCC(c2ccccc2)N(C)C)cc1)c1ccc(C)cc1` (stereo partly drawn) [Compound 30, 2-(dimethylamino)-2-phenylethyl [S-(R*,S*)]-4-[[3,3-diethyl-1-[[[1-(4-methylphenyl)butyl]amino]carbonyl]-4-oxo-2-azetidinyl]oxy]benzoate] belongs 656000 M⁻¹ s⁻¹; to `CCC[C@@H](NC(=O)N1C(=O)C(CC)(CC)[C@@H]1Oc1ccc(C(=O)OCCN(C)Cc2ccccc2)cc1)c1ccc(C)cc1` [Compound 31, 2-[methyl(phenylmethyl)amino]ethyl [S-(R*,S*)]-4-[[3,3-diethyl-1-[[[1-(4-methyl-phenyl)butyl]amino]carbonyl]-4-oxo-2-azetidinyl]oxy]benzoate], 1.18e+06 M⁻¹ s⁻¹.

In the case of `CCC[C@@H](NC(=O)N1C(=O)C(CC)(CC)[C@@H]1Oc1ccc(CC(=O)OCCN(C)C)cc1)c1ccc(C)cc1` [Compound 32], the kinact/KI was found to be 1.99e+06 M⁻¹ s⁻¹. On the same count and under the same terms, the value for `CCC[C@@H](NC(=O)N1C(=O)C(CC)(CC)[C@@H]1Oc1ccc(CC(=O)OCCCN(C)C)cc1)c1ccc(C)cc1` [Compound 33] was 1.15e+06 M⁻¹ s⁻¹.

For `CCC[C@@H](NC(=O)N1C(=O)C(CC)(CC)[C@@H]1Oc1ccc(CC(=O)OCCN(CC)CC)cc1)c1ccc(C)cc1` [Compound 34], the kinact/KI worked out at 1.34e+06 M⁻¹ s⁻¹. As to `CCC[C@@H](NC(=O)N1C(=O)C(CC)(CC)[C@@H]1Oc1ccc(CC(=O)OCCN2CCOCC2)cc1)c1ccc(C)cc1` [Compound 35], the kinact/KI was 1.72e+06 M⁻¹ s⁻¹. With `CCC[C@@H](NC(=O)N1C(=O)C(CC)(CC)[C@@H]1Oc1ccc(CC(=O)OC(C)CN(C)C)cc1)c1ccc(C)cc1` (stereo partly drawn) [Compound 36], the kinact/KI was 1.69e+06 M⁻¹ s⁻¹.

The assay is the same for the next values; noted with them: second order rate constant for inactivation of the enzyme, expressed to the nearest thousand; pH 7.5.
Turning to `CCCC(NC(=O)N1C(=O)C(CC)(CC)C1Oc1ccc(C(=O)OCCN(c2ccccc2)c2ccccc2)cc1)c1ccc(C)cc1` (stereo not drawn) [Compound 28, 2-(diphenylamino)ethyl[S-(R*,S*)]-4-[[3,3-diethyl-1-[[[1-(4-methylphenyl)butyl]amino]carbonyl]-4-oxo-2-azetidinyl]oxy]benzoate], the “Kobs/[I]” value was 188,000 per mole per second.

For the origin of these results see patent EP0595557A1, “New substituted azetidinones as anti-inflammatory and antidegenerative agents” (MERCK & CO. INC., priority 1992, dated 1994).
